The subject of data set [1] is Staphylococcus aureus ATCC 33591 (MRSA). The data set can be described thus: Antibacterial broth microdilution assay (MIC), MRSA ATCC 33591. The class given is cell-based. The conditions noted are these: Staphylococcus aureus; amount inhibiting >95% of growth (A600), 18 h; suffix 'I' = partial growth inhibition at the value, >95% at higher concentrations; read-out: MIC ATCC 33591. The procedure: (§1) These 24 DHP analogues were then screened for inhibition of Staphylococcus aureus growth using microdilution assays. Growth inhibition was examined in methicillin-sensitive S. aureus (ATCC 12600) and two strains of MRSA (ATCC 33591 and ATCC 43300). Antibiotic controls were included in the screen, including carbenicillin, erythromycin, gentamycin, trimethoprim, and vancomycin, and minimum inhibitory concentrations (MICs) were determined for each compound, which were defined as the concentration required to inhibit >95% of bacterial growth (Table 1).
(§2) Antibacterial Microdilution Assay (MIC Determination)
(§3) 1240 The MIC determination assays were performed in a BSL-2 laboratory with appropriate security and biosafety measures. The MICs were determined using a broth microdilution assay closely following the guidelines of the Clinical and Laboratories Standards Institute (CLSI). MICs were determined in duplicate for two biological replicates using 2-fold serial dilutions of test compounds or commercial antibiotics in cation-adjusted Mueller-Hinton broth. The central 60 wells of 96-well plates were 1245 prepared with the compound of interest at the indicated concentration, where 2 µL of the compound in DMSO were added prior to the addition of the culture. Overnight cultures of the different Staphylococcus aureus strains were diluted to provide an initial inoculum of approximately 5 X 10 5 CFU/mL that was delivered to each well in 198 µL of culture (final DMSO concentration of ~1%). Initial inoculum concentrations were verified by plating to count CFU/mL. Each plate was equipped with 1250 experimental controls for full growth (6 wells) and full growth inhibition (6 wells), and all control wells were in the presence of 1% DMSO. The outer 36 wells were filled with 200 µL of culture each to prevent growth effects on the interior 60 wells. The plates were incubated at 37 °C for 18 hours, at which time they were removed from the incubator and were allowed to equilibrate to room temperature for 30 minutes. Absorbance of each well at 600 nm was then read using a microplate reader to 1255 determine the MIC, and visual confirmation of growth inhibition was also performed. If variation was seen in the experimental values, the highest value of two independent trials was listed.
On the technique in general: Broth dilution looks for growth in wells or tubes with falling amounts of substance.

A short description of data set [2]: MTT cytotoxicity assay, HEK293 viability. In kind it is cell-based. The conditions noted are these: human, HEK293 cells, 24 h treatment. The procedure: After determining that some of our compounds were quite potent for the inhibition of bacterial growth, we next turned toward assessing broader cytotoxicity trends. […] Further, our previously reported derivatives were also screened for red blood cell (RBC) hemolysis, and the assay indicated a lack of RBC lysis at the highest concentrations tested for all compounds (64 μg/mL).[6] […] This indicates it may have secondary mechanisms of cytotoxicity via nonspecific membrane rupturing activity, albeit, at a much higher concentration than its 2 μg/mL MIC. Next, we examined the compounds’ ability to decrease the viability of an immortalized mammalian cell line (HEK293) using a colorimetric MTT assay.[34] To our surprise, all of the compounds screened produced relatively potent cytotoxicity against this cell line. […] We screened a dihydropyrimidine where the guanidine was substituted with a urea (traditional Biginelli reaction derived), and this compound had no bacterial inhibition but continued to have significant mammalian cytotoxicity, further decoupling the antibacterial activity from mammalian cytotoxicity in these cases. Future studies involving the photoaffinity probes will examine the mechanism by which our compounds exert their growth-inhibiting effects in both bacterial and mammalian cells.
Mammalian cytotoxicity was evaluated using a commercially available MTT Cell proliferation assay 1275 (ATCC 30-1010K; Manassas, VA) following the included protocol. Briefly, Human Embryonic Kidney 293 (HEK-293; ATCC CRL-1353) cells were seeded onto 96 well plates (Nunclon Delta; ThermoFisher 167008; Waltham, MA) coated with Poly-D-Lysine (Thermofisher A3890401) at a density of […] cells per well in 80 µL of Eagle's Minimum Essential Medium (EMEM; ATCC 30-2003) with 10% Fetal Bovine Serum (ATCC 30-2021). Cells were incubated at 37 °C in a 5% CO2 atmosphere and allowed to 1280 adhere overnight, and then treated for 24 h with 20 µL of drugs dissolved in PBS with 0.5% DMSO, at concentrations ranging from 1×10^-4 M to 1×10^-9 M. Following treatment, 10 µL of MTT reagent was added to each well and allowed to incubate at 37 °C for 4 h. Then, 100 μL of detergent reagent was added to all wells, and they were stored at room temperature in the dark for 2 h. Absorbance was then read using a multi-mode spectrophotometer (Spectramax i3X; San Jose, CA) at a wavelength of 570 1285 nm. Raw values were normalized to a 0-100% scale using the maximum and minimum responses. To generate dose-response curves and IC50 values, normalized data were plotted against the log of the drug concentrations and fit to nonlinear curve [log(inhibitor) vs. response – variable slope (four parameters)] using GraphPad Prism version 7.05 (GraphPad Software; San Diego, CA).
For orientation: Tetrazolium assays rely on reduction of a dye to a coloured formazan, in cell work by metabolically active cells.

Data set [3] relates to red blood cells (defibrinated sheep blood). Kind of data set: Hemolysis assay (red blood cell lysis). The class given is cell-based. Conditions: concentration producing >20% hemolysis of red blood cells, 1 h, 37 C. The procedure:
(§4) 1260 1.5 mL of mechanically defibrinated sheep blood (Hemostat Labs: DSB100) was placed in a microcentrifuge tube and was centrifuged at 10,000 rpm for ten minutes. Following the removal of the supernatant, the cells were resuspended in 1 mL of phosphate-buffered saline (PBS). This process was repeated two more times. The final suspension was diluted ten-fold with PBS and was aliquoted into microcentrifuge tubes containing the compounds which were previously serial diluted in PBS. TritonX 1265 (1% by volume) served as a positive control, while sterile PBS served as a negative control. All samples were incubated at 37 °C and shaken at 200 rpm for 1 hour. After the 1 hour, the samples were centrifuged at 10,000 rpm for 5 minutes and the absorbance of the supernatant was measured via UV spectroscopy at a 540 nm wavelength.

Data set [4] deals with Staphylococcus aureus ATCC 43300 (MRSA). Kind of data set: Antibacterial broth microdilution assay (MIC), MRSA ATCC 43300. In kind it is cell-based. The conditions noted are these: amount inhibiting >95% of growth (A600), 18 h, suffix 'I' = partial growth inhibition at the value, >95% at higher concentrations; for MIC: Staphylococcus aureus, read-out: MIC ATCC 43300. On the procedure:
as §1, §2, §3

Data set [5] concerns Staphylococcus aureus ATCC 12600. Kind of data set: Antibacterial broth microdilution assay (MIC), methicillin-sensitive S. aureus ATCC 12600. The class given is cell-based. The conditions noted are these: Staphylococcus aureus, ATCC12600; amount inhibiting >95% of growth (A600), 18 h; suffix 'I' = partial growth inhibition at the value, >95% at higher concentrations; read-out: MIC ATCC 12600. On the procedure: as §1, §2, §3

Data set [6] deals with Staphylococcus aureus. Kind of data set: S. aureus growth inhibition (all three strains or strain not specified). The class given is cell-based. Conditions: for MIC: Staphylococcus aureus, all three S. aureus strains or strain not specified, read-out: concentration inhibiting S. aureus growth (MIC); for antibacterial activity (in words): S. aureus growth. On the procedure:
as §1, §2, §3

The target of data set [7] is T1, recombinant Staphylococcus aureus DHFR (SaDHFR) (Staphylococcus aureus, UniProt P0A017).
T1 construct: made in house
The data set can be described thus: Inhibition of recombinant S. aureus DHFR. In kind it is biochemical. Conditions: in vitro. The procedure: To explore this, oxidization of DHP 7a to the pyrimidine 8a was performed using phenyliodine diacetate (PIDA) (Figure 3a),[12]−[14] as this oxidation state mimics FDA approved antimicrobial DHFR inhibitors trimethoprim 1 (Figure 1a) and pyrimethamine 9 (Figure 3b).

In data set [8] the test system is MRSA. Also on record: method as in PMID 18931753, PMID 16883415. The conditions noted are these: cited from earlier work.
Data set [9] deals with mammalian toxicity. Also noted: method as in PMID 18931753. Conditions: cited from earlier work.
The test system of data set [10] is dihydrofolate reductase (DHFR). Also on record: method as in PMID 18931753. The conditions noted are these: cited from earlier work.
The nature of data set [11]: Hemolysis assay (red blood cell lysis). In kind it is cell-based, sheep. Conditions: sheep, washed red blood cells from defibrinated sheep blood; 64 μg/mL; read-out: hemolysis (RBC lysis) at 64 μg/mL. The procedure: as §4

Values after ≈ are worked out from the molar mass of the structure shown. Values joined by “and” are separate entries in the source; they are usually repeats but may differ in a detail not shown here. Equal entries are not always repeated. “Also recorded” adds a separate entry of the source.

The values below come from publication PMC11247627, “Evaluation of Antibacterial Functionalized Dihydropyrimidine Photoaffinity Probes Toward Mechanism of Action Studies” (ACS Medicinal Chemistry Letters, 2024).

Broadly, the IC50 is the concentration that inhibits the measured activity by half. Read a low IC50 as greater potency in that assay.

T1 sequence (P0A017 whole entry): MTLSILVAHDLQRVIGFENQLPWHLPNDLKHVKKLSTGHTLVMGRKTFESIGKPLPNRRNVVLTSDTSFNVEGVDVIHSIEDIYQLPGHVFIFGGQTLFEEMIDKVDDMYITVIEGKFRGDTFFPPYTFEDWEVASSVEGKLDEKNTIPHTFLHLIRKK

With `CCOC(=O)C1=C(c2ccccc2)NC(N)=NC1c1ccccc1` (stereo not shown) [compound 6], the MIC in [1], in [4], in data set [5] and in data set [6] was greater than 64 µg/mL in each case. Moreover, the concentration for half-maximal inhibition (IC50) at 24 h in data set [2] was 18 µM and 5.8 µg/mL. The lysis20 in data set [3] is greater than 64 µg/mL. For the same compound, the “MIC ATCC 43300” value in data set [4] is greater than 64 µg/mL.

As to `CCOC(=O)C1=C(c2ccccc2)NC(N)=NC1c1ccc(-c2ccccc2)cc1` (stereo not shown) [7b], the MIC in data set [1], in data set [4], in [5] and in [6] was 4 µg/mL (≈ 10.1 µM) throughout. The half-inhibitory concentration (IC50) at 24 h in [2] is 9.4 µM and 3 µg/mL. This compound returned a lysis20 in data set [3] greater than 64 µg/mL.

Turning to `CCOC(=O)c1c(C)nc(N)nc1-c1cc(Cl)cc(Cl)c1` [compound 10], the “DHFR inhibition (in words)” value in data set [7] was “lacked antibacterial activity and DHFR inhibition”. Also, the “antibacterial activity (in words)” value in [6] is on record as “lost all antibacterial activity; also recorded: lacked antibacterial activity”.

For the compound `CCOC(=O)C1=C(CC)NC(N)=NC1c1cc(Cl)cc(Cl)c1O` (stereo not shown) [compound 2, Emmacin], in data set [8], the “MRSA growth inhibition (in words)” value is “found to inhibit MRSA growth”. Moreover, the “mammalian toxicity (in words)” value in [9] is given as “lack mammalian toxicity”. In [10], the “DHFR inhibition (in words)” value is recorded as “previously reported to inhibit DHFR”.

Turning to `CCOC(=O)c1c(-c2ccccc2)nc(N)nc1-c1ccc(CC(C)C)cc1` [8a], in data set [7], the “DHFR inhibition (in words)” value is “no inhibition was observed; also recorded: lacked antibacterial activity and DHFR inhibition”. For the same compound, in data set [6], the “antibacterial activity (in words)” value is recorded as “lacked antibacterial activity” and the MIC was greater than 64 µg/mL.

For the compound `CCOC(=O)C1=C(c2cccc(C(F)(F)F)c2)NC(N)=NC1c1ccc(CC(C)C)cc1` (stereo not shown) [7f], the MIC in data set [1], in [4], in data set [5] and in [6] was 2 µg/mL (≈ 4.49 µM) throughout. Also, the IC50 at 24 h in [2] was 1.9 µM and 0.61 µg/mL. Moreover, in data set [3], the lysis20 amounted to 64 µg/mL. In addition, the hemolysis at 1 h, 64 μg/mL in data set [11] is greater than 20%.
